{"source": "patent US20080255031A1", "about": "“METHOD FOR ENHANCING INSULIN SECRETION” (priority 2007, published 2008)", "key": {"IKs [1]": {"system": "IKs", "conditions": "Zygmunt et al. (2002); read-out: IC50 value (current not named); cited from earlier work"}, "IKr [2]": {"molecular_target": "T1, IKr (Canis lupus familiaris, UniProt Q9TSZ3)", "T1 sequence (Q9TSZ3 1-1158)": "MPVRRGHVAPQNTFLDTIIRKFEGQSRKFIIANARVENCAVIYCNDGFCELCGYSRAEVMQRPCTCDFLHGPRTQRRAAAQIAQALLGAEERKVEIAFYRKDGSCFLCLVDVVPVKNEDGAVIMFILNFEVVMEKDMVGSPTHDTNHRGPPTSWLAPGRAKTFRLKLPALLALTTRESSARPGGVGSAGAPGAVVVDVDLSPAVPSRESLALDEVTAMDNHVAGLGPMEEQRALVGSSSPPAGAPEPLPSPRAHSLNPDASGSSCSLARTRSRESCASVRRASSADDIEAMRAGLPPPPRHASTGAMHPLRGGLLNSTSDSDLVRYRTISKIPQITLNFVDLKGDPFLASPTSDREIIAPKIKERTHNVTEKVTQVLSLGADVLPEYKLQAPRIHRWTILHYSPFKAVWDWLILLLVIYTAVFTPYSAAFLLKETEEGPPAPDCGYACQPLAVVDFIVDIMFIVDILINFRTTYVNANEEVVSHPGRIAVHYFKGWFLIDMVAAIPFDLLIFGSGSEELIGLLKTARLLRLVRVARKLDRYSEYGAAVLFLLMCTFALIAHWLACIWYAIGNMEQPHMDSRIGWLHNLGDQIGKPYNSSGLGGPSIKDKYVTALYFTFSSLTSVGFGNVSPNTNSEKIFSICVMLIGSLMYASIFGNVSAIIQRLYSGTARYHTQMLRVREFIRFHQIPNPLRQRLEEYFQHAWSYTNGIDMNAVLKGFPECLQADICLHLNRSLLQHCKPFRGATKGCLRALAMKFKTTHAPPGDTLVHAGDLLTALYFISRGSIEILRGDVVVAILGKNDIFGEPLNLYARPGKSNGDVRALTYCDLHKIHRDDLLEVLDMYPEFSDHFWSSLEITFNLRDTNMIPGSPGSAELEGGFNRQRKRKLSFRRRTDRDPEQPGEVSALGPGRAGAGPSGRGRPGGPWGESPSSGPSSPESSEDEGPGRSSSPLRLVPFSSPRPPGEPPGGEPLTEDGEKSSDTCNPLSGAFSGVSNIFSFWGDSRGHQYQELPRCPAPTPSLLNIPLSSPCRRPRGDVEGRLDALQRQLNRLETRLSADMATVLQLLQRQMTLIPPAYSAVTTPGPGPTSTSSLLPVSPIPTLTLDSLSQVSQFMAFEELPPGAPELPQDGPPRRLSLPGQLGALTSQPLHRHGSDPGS", "parameters": "Whole cell currents were recorded from isolated canine left ventricular midmyocrdial cells; endogenous in cells; host or cells: isolated canine left ventricular midmyocardial cells", "conditions": "Zygmunt et al. (2002); cited from earlier work"}, "[3]": {"conditions": "patients; U.S. Patent Publication No. 2004/0063717; cited from earlier work"}, "[4]": {"system": "rat isolated pancreatic islets", "assay": "Glucose stimulated insulin secretion (GSIS) in rat isolated pancreatic islets", "assay_type": "cell-based", "protocol": "Rat islets were isolated from male Sprague-Dawley (SD) rats (8-12 weeks old, n=6) as described by Yang Z. et al. […] Insulin secretion assay was performed essentially as previously described by Liu D. et al. Steroids 2006, 71, 691-699. […] Insulin secreted in experimental samples was measured by a RIA kit (Mercodia, N.C.). All insulin secretion data in the present study were normalized to insulin secretion per islet. There was a biphasic response for insulin secretion to ranolazine."}, "CYP2D6 [5]": {"molecular_target": "T2, CYP2D6 (Homo sapiens, UniProt P10635)", "T2 sequence (P10635 whole entry)": "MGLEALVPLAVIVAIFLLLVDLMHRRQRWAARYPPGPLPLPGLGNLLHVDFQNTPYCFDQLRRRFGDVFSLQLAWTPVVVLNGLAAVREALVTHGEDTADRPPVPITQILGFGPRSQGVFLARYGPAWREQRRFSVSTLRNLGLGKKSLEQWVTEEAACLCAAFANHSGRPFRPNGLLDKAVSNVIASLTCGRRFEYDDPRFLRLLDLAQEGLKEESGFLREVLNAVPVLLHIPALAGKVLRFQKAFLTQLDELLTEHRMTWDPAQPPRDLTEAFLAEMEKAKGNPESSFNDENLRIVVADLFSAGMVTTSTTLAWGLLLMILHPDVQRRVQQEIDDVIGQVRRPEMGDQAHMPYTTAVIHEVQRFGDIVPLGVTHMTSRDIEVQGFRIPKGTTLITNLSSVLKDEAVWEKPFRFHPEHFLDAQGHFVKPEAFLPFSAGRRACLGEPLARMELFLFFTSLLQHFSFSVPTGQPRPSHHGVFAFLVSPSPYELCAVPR", "assay": "Inhibitory effects on CYP2D6 in extensive metabolizers of dextromethorphan", "assay_type": "in vivo", "parameters": "evaluated in extensive metabolizers of dextromethorphan; from tissue; host or cells: in vivo, subjects who are extensive metabolizers"}, "CYP2D6 [6]": {"molecular_target": "T2, CYP2D6", "assay": "biochemical", "method": "The substrate, buffer and enzyme were pre-warmed at 37° C. The pre-warmed NADPH regenerating system and were then added and the samples gently mixed and incubated for 30 minutes. The effect of ranolazine on the CYP2D6 marker reactions to form 1-hydroxy-bufurolol, and dextrophan was monitored by tandem mass spectrometric assays. A known CYP2D6 inhibitor, quinidine, was included as a positive control. The negative control samples consisted of all components except ranolazine or known inhibitors. Incubations were carried out in duplicate."}, "[7]": {"assay": "Solubility in aqueous solutions by pH (Table 1)", "assay_type": "physicochemical"}, "[8]": {"system": "human isolated pancreatic islets", "assay": "GSIS in human isolated pancreatic islets", "assay_type": "cell-based", "conditions": "one donor, 30 min incubation (Example 4, FIG. 4)", "protocol": "Rat islets were isolated from male Sprague-Dawley (SD) rats (8-12 weeks old, n=6) as described by Yang Z. et al. […] Insulin secretion assay was performed essentially as previously described by Liu D. et al. Steroids 2006, 71, 691-699. […] Insulin secreted in experimental samples was measured by a RIA kit (Mercodia, N.C.). […] The procedure used for the human islets was the same as the procedure used in Example 1 above, except that the incubation period was 30 minutes, instead of the 60 minutes used in Example 1."}, "IKr [9]": {"molecular_target": "T1, IKr", "assay": "cell-based", "protocol": "(§1) Whole cell currents were recorded from isolated canine left ventricular midmyocrdial cells at 37° C. IKr and IKs were recorded during standard pulse protocols. Action potentials recorded at basic cycle lengths (BCL) of 300 and 2000 ms were used as command waveforms during voltage claim to measure late INa. Enantiomeric effects were determined at concentrations of 3, 10, and 30 μM.\n(§2) Late INa was evaluated at two voltages during the plateau and final repolarization of an action potential voltage claims."}, "IKs [10]": {"system": "IKs", "assay": "Whole cell IKs in isolated canine left ventricular midmyocardial cells", "assay_type": "cell-based", "conditions": "30 μM", "protocol": "as §1, §2"}}, "note": "Where two headings read alike, the source gives them in different places."}
{"smiles": "COc1ccccc1OCC(O)CN1CCN(CC(=O)Nc2c(C)cccc2C)CC1", "note": "(racemic) [ranolazine, (±)-N-(2,6-dimethylphenyl)-4-[2-hydroxy-3-(2-methoxyphenoxy)propyl]-1-piperazine-acetamide]", "values": [{"measurement": "IC50", "setting": "IKs [1]", "result": "> 100", "unit": "µM"}, {"measurement": "IC50", "setting": "IKr [2]", "result": 11, "unit": "µM"}, {"measurement": "HbA1c levels", "setting": "[3]", "result": "reduced HbA1c levels"}, {"measurement": "increase of insulin secretion (GSIS)", "setting": "[4]; 1 nM to 1 μM, concentration-dependent, 20 mM glucose, 60 min", "result": "2-5 fold"}, {"measurement": "effect on GSIS", "setting": "[4]; 10 μM, compared with 20 mM glucose alone", "result": "no significant effect on GSIS"}, {"measurement": "inhibition of CYP2D6 by ranolazine and/or metabolites", "setting": "CYP2D6 [5]", "result": "partially inhibit CYP2D6"}, {"measurement": "IC50", "setting": "CYP2D6 [6]", "result": 324, "unit": "µM"}, {"measurement": "USP Solubility Class", "setting": "[7]; Solution pH 4.81", "result": "Freely Soluble"}, {"measurement": "USP Solubility Class", "setting": "[7]; Solution pH 4.89", "result": "Soluble"}, {"measurement": "USP Solubility Class", "setting": "[7]; Solution pH 4.90", "result": "Soluble"}, {"measurement": "USP Solubility Class", "setting": "[7]; Solution pH 5.04", "result": "Soluble"}, {"measurement": "USP Solubility Class", "setting": "[7]; Solution pH 5.35", "result": "Sparingly Soluble"}, {"measurement": "USP Solubility Class", "setting": "[7]; Solution pH 5.82", "result": "Slightly soluble"}, {"measurement": "USP Solubility Class", "setting": "[7]; Solution pH 6.46", "result": "Slightly soluble"}, {"measurement": "USP Solubility Class", "setting": "[7]; Solution pH 6.73", "result": "Very slightly soluble"}, {"measurement": "USP Solubility Class", "setting": "[7]; Solution pH 7.08", "result": "Very slightly soluble"}, {"measurement": "USP Solubility Class", "setting": "[7]; Solution pH 7.59 (unbuffered water)", "result": "Very slightly soluble"}, {"measurement": "Solubility", "setting": "[7]; Solution pH 7.79", "result": 0.17, "unit": "mg/mL"}, {"measurement": "USP Solubility Class", "setting": "[7]; Solution pH 7.79", "result": "Very slightly soluble"}, {"measurement": "USP Solubility Class", "setting": "[7]; Solution pH 12.66", "result": "Very slightly soluble"}]}
{"smiles": "COc1ccccc1OC[C@H](O)CN1CCN(CC(=O)Nc2c(C)cccc2C)CC1", "note": "[R-ranolazine, (R)-(+)-N-(2,6-dimethylphenyl)-4-[2-hydroxy-3-(2-methoxyphenoxy)-propyl]-1-piperazineacetamide]", "values": [{"measurement": "increasing the secretion of insulin in response to glucose", "setting": "[8]", "result": "significantly more effective"}, {"measurement": "IC50", "setting": "IKr [9]", "result": "28 ± 4", "unit": "µM"}, {"measurement": "IKs reduced", "setting": "IKs [10]", "result": 5, "unit": "%"}]}
{"smiles": "COc1ccccc1OC[C@@H](O)CN1CCN(CC(=O)Nc2c(C)cccc2C)CC1", "note": "[S-ranolazine, (S)-(−)-N-(2,6-dimethylphenyl)-4-[2-hydroxy-3-(2-methoxyphenoxy)-propyl]-1-piperazineacetamide]", "values": [{"measurement": "IC50", "setting": "IKr [9]", "result": "10 ± 2", "unit": "µM"}, {"measurement": "IKs reduced", "setting": "IKs [10]", "result": 27, "unit": "%"}]}
